Results from ChEMBL document CHEMBL5505977, “Discovery of novel pyrrolo[2,3-d]pyrimidines as potent menin-mixed lineage leukemia interaction inhibitors” (Eur J Med Chem, 2024).

Columns and labels:
HL-60 = experiment: Antiproliferative activity against human HL-60 cells incubated for 72 hrs by MTT assay; type: functional, cell-based; conditions: HL-60, 72 h
MV4-11 [1] = experiment: cells; conditions: Homo sapiens, MV4-11, 72 h
Description: Antiproliferative activity against human MV4-11 cells incubated for 72 hrs by MTT assay

Menin = target: T1, Menin (Homo sapiens, UniProt O00255); experiment: Binding affinity to menin (unknown origin) incubated for 1 hr by fluorescence polarization assay
T1 sequence (O00255 whole entry): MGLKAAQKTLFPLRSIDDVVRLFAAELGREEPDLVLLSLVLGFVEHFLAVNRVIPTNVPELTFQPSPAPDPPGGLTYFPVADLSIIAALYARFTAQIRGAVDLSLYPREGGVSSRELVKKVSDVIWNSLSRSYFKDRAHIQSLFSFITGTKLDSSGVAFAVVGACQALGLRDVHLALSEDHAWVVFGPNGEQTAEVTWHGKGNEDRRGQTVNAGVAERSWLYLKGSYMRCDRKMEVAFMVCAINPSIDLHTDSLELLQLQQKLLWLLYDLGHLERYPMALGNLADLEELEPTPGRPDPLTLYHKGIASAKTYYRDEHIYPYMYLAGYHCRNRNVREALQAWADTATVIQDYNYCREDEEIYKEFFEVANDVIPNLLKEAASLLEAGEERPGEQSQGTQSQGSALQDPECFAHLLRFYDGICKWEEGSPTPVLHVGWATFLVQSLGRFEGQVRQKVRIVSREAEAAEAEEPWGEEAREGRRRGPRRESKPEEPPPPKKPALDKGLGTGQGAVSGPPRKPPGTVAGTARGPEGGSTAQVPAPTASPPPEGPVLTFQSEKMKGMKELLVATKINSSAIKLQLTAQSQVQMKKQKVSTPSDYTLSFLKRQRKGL

MV4-11 [2] = experiment: Antiproliferative activity against human MV4-11 cells incubated for 7 days by PrestoBlue Cell Viability assay; type: functional, cell-based; conditions: MV4-11, 168 h
[3] = target: Voltage-gated inwardly rectifying potassium channel KCNH2 (Homo sapiens, UniProt Q12809); experiment: Inhibition of human ERG expressed in CHO cells by Q-patch clamp assay; type: toxicity, cell-based
[4] = target: T2, Menin/Histone-lysine N-methyltransferase MLL (Homo sapiens, UniProt O00255); experiment: Inhibition of human menin-MLL (unknown origin) protein-protein interaction incubated for 0.5 to 4 hrs by TR-FRET assay
[5] = target: T2, Menin/Histone-lysine N-methyltransferase MLL; experiment: Inhibition of human menin-MLL (unknown origin) protein-protein interaction by fluorescence polarization assay

T2 sequence (Q03164 1-2718 partner limits assumed, one chain of several): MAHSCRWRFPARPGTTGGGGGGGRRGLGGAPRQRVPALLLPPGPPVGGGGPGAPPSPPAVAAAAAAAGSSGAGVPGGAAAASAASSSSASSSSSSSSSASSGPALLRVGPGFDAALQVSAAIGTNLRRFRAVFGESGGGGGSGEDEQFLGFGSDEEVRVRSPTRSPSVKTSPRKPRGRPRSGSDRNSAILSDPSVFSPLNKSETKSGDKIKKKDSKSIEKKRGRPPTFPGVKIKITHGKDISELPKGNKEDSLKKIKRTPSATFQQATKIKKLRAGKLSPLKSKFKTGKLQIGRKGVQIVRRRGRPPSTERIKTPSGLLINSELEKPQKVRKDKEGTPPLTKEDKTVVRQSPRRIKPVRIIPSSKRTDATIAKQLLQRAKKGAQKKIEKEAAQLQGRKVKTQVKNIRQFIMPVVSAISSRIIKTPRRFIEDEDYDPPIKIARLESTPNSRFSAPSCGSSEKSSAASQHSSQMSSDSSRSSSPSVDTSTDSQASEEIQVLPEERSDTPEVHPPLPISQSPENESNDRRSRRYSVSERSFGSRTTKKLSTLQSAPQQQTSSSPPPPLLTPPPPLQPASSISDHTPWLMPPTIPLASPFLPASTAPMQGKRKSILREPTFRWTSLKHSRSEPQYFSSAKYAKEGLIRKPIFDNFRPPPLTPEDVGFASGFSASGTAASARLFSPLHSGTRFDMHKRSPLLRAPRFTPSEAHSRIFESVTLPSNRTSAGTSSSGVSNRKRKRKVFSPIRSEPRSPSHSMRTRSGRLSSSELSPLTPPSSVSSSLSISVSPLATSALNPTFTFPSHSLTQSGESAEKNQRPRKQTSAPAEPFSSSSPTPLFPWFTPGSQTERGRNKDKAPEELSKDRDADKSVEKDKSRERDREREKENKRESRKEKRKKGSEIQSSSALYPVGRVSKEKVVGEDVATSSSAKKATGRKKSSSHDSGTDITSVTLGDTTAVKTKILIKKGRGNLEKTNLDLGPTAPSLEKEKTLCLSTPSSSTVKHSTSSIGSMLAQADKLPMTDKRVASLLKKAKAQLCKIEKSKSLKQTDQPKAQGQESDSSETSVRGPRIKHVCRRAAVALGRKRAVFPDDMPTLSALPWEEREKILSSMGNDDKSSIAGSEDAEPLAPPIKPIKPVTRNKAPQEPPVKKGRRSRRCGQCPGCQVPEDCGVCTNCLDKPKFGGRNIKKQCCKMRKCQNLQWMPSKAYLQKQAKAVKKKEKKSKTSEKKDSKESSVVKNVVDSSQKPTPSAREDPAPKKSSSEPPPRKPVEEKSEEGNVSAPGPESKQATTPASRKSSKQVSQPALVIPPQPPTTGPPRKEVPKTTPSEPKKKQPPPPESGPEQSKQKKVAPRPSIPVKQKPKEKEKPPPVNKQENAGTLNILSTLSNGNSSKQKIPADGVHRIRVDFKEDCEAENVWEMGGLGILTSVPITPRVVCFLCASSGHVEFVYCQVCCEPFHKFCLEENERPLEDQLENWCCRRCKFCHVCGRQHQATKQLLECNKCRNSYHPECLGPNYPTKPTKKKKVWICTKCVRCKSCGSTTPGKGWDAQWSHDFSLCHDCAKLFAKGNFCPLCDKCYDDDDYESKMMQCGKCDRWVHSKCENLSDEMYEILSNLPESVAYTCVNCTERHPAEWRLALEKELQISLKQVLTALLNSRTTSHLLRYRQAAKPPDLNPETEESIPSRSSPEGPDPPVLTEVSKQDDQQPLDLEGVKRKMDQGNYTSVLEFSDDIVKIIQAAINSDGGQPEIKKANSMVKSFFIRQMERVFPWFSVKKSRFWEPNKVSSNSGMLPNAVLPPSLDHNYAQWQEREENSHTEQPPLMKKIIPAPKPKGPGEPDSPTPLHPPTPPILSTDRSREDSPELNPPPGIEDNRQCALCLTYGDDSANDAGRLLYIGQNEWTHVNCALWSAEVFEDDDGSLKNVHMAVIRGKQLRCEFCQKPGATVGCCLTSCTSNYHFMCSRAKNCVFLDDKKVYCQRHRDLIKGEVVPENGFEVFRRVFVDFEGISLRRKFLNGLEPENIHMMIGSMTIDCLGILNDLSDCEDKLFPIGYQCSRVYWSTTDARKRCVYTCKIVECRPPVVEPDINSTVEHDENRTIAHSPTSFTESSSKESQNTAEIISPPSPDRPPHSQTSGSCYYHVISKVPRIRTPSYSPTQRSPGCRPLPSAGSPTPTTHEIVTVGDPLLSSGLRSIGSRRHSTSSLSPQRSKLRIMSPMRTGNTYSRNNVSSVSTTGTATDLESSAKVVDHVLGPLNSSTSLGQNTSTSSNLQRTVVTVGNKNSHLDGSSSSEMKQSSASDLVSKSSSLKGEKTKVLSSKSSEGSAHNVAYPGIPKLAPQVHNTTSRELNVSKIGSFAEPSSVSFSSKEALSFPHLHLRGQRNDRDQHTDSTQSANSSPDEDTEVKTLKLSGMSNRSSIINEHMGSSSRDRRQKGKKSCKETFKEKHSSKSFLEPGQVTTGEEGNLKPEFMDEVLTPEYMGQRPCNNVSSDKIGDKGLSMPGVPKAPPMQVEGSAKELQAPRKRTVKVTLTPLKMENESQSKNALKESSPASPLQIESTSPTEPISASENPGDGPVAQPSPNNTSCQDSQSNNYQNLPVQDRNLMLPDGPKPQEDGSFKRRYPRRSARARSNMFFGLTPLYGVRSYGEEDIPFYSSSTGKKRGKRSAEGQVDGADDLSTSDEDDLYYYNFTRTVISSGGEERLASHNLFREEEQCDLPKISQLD
T2 sequence (Q03164 2719-3969 partner limits assumed, one chain of several): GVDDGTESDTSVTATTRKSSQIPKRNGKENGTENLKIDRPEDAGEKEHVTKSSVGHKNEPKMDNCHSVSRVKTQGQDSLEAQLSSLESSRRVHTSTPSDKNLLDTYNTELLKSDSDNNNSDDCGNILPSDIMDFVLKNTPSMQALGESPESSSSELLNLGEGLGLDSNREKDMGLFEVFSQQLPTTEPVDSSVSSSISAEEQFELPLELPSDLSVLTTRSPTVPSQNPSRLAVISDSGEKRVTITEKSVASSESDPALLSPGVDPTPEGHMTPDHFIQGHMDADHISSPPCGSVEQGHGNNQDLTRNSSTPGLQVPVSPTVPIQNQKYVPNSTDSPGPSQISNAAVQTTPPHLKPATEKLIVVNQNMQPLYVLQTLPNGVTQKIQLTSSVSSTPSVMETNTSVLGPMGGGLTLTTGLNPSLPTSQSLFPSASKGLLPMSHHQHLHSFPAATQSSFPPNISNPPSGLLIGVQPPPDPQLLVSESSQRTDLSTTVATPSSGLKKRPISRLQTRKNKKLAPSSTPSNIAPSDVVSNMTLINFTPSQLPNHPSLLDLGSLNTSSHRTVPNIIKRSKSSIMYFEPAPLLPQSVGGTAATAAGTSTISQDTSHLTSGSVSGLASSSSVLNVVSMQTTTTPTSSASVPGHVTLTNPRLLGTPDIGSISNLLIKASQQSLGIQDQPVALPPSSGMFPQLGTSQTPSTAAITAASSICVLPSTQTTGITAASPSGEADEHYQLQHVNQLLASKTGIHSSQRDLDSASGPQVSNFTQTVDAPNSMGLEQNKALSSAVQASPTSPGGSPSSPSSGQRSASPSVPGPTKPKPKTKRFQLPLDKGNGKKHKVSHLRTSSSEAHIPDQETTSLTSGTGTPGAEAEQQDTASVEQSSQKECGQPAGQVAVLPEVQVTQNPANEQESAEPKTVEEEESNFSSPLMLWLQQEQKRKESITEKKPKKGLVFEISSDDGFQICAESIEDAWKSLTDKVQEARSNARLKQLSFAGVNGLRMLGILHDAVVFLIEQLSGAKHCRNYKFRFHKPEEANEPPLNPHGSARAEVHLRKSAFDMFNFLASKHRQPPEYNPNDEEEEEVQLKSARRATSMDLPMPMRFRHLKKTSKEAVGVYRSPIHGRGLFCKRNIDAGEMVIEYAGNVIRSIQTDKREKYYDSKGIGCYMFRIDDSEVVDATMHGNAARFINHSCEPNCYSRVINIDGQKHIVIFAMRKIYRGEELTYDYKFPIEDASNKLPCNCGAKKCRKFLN
Voltage-gated inwardly rectifying potassium channel KCNH2, sequence (Q12809 whole entry): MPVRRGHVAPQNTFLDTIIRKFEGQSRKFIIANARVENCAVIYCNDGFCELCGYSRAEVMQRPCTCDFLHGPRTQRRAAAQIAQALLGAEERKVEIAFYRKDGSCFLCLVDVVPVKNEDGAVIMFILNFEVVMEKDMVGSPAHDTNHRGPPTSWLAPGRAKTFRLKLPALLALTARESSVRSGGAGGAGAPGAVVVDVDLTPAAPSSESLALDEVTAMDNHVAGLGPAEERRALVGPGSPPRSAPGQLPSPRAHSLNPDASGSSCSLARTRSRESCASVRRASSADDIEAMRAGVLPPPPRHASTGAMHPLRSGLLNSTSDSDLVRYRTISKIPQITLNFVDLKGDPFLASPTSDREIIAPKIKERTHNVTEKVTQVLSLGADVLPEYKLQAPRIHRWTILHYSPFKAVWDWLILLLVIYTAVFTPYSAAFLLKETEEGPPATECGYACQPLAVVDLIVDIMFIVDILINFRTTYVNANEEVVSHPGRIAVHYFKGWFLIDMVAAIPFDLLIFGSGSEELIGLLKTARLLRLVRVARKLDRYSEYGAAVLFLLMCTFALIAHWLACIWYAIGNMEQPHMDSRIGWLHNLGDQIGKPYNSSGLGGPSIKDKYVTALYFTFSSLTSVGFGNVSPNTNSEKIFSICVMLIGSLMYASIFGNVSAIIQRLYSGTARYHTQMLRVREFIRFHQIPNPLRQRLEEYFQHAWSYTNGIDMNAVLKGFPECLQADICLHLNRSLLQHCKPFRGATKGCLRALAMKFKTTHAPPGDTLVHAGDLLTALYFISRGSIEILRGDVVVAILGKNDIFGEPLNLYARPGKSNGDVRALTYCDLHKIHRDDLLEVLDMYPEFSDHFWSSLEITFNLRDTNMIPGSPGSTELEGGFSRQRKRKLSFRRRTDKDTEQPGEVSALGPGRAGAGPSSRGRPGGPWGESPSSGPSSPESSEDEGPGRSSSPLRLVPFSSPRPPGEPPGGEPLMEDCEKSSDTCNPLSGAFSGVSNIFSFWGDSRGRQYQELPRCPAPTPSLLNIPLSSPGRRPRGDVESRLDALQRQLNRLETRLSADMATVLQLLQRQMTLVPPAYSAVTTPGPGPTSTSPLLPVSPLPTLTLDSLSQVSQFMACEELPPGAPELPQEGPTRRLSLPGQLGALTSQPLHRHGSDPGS

| Structure (SMILES) | IC50 (HL-60) [nM] | IC50 (MV4-11 [1]) [nM] | IC50 (Menin) [nM] | also measured |
| --- | --- | --- | --- | --- |
| N#Cc1ccc(N2CC(CN3CCC(n4ccc5cncnc54)CC3)C2)cc1 | > 10000 | > 10000 | > 10000 | – |
| CS(=O)(=O)c1ccc(N2CC(CN3CCC(n4cc(-c5ccc(F)cc5)c5c(N)ncnc54)CC3)C2)cc1 | > 10000 | 2050 | 730 | – |
| CC(C)N(C)C(=O)c1cc(F)ccc1-n1cc(C2CCN(C(=O)[C@H]3NC4CCC3CC4)CC2)c2ccncc21 | – | – | – | IC50 (MV4-11 [2]): 73 nM; IC50 [3]: > 100000 nM |
| Nc1ncnc2c1c(-c1ccc(F)cc1)cn2C1CCN(CC2CN(c3ccc(S(=O)(=O)C4CCCC4)cc3)C2)CC1 | > 10000 | 1940 | 1040 | – |
| CCS(=O)(=O)c1ccc(N2CC(CN3CCC(n4cc(-c5ccc(F)cc5)c5c(N)ncnc54)CC3)C2)cc1 | > 10000 | 1290 | 450 | – |
| Nc1ncnc2c1c(-c1ccc(F)cc1)cn2C1CCN(CC2CN(c3ccc(S(=O)(=O)C4CC4)cc3)C2)CC1 | 7500 | 1260 | 470 | – |
| CC(C)(C)OC(=O)N1CC(S(=O)(=O)c2ccc(N3CC(CN4CCC(n5cc(-c6ccc(F)cc6)c6c(N)ncnc65)CC4)C3)cc2)C1 | > 10000 | 1350 | 1140 | – |
| Cc1c(CN2CCC3(CC2)CN(c2ncnc4sc(CC(F)(F)F)cc24)C3)ccc2c1cc(C#N)n2CC(N)=O | – | – | – | IC50 [4]: 8 nM |
| CNc1nc(NC2CCN(Cc3ccc4c(cc(C#N)n4CC45CC(NC=O)(C4)C5)c3C)CC2)c2cc(CC(F)(F)F)sc2n1 | – | – | – | IC50 [5]: 0.51 nM |
